Test results as given in the supplement of paper PMC6045584.
± gives the standard deviation of the averaged measurements.

Columns and labels:
[1] = compound: Cc1cn(-c2cc(NC(=O)c3ccc(C)c(Nc4nccc(-c5cccnc5)n4)c3)cc(C(F)(F)F)c2)cn1 [NILOTINIB]; assay: surviving fraction relative to DMSO-only wells; higher = less growth inhibition; details: exposure time: 5 days
Outline: (§1)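 Tumour cell lines were seeded in log phase at 250–500 cells per well into 384-well plates. Starting 24 hours later, inhibitors were present continuously for five days at 0.5, 1, 5, 10, 50, 100, 500 and 1000 nM. Surviving fraction, from CellTiter-Glo luminescence, is normalised to the median of DMSO-only wells. Three screens per line were required, with replicate Pearson r >0.7 and median Z' >0.3 for a line to be kept.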

[2] = compound: O=C(CCCCCCC(=O)Nc1ccccc1)NO [VORINOSTAT]; assay: as above; details: exposure time: 5 days
Outline: as §1

Test System | surviving fraction ([1]; 0.5 nM) | surviving fraction ([1]; 1 nM) | surviving fraction ([1]; 5 nM) | surviving fraction ([1]; 10 nM) | surviving fraction ([1]; 50 nM) | surviving fraction ([1]; 100 nM) | surviving fraction ([1]; 500 nM) | surviving fraction ([1]; 1000 nM) | surviving fraction ([2]; 0.5 nM) | surviving fraction ([2]; 1 nM) | surviving fraction ([2]; 5 nM) | surviving fraction ([2]; 10 nM) | surviving fraction ([2]; 50 nM) | surviving fraction ([2]; 100 nM) | surviving fraction ([2]; 500 nM) | surviving fraction ([2]; 1000 nM)
SUM149 BREAST | 0.884 ± 0.092 | 0.895 ± 0.024 | 0.971 ± 0.057 | 0.833 ± 0.072 | 0.898 ± 0.053 | 0.786 ± 0.061 | 0.872 ± 0.071 | 0.833 ± 0.053 | 1.1 ± 0.12 | 1.03 ± 0.044 | 1.08 ± 0.047 | 0.917 ± 0.038 | 1.06 ± 0.045 | 1.14 ± 0.016 | 0.996 ± 0.066 | 0.71 ± 0.031
SUM149.B1*.S BREAST | 1.09 ± 0.026 | 1.08 ± 0.051 | 1.163 ± 0.0038 | 1.12 ± 0.031 | 1.1 ± 0.046 | 1.13 ± 0.018 | 1.18 ± 0.035 | 1.11 ± 0.036 | 1.05 ± 0.026 | 0.971 ± 0.049 | 1.02 ± 0.047 | 0.845 ± 0.031 | 1.06 ± 0.038 | 1.05 ± 0.052 | 0.82 ± 0.038 | 0.523 ± 0.034
SUM159 BREAST | 1.1 ± 0.039 | 1.1 ± 0.021 | 1.11 ± 0.021 | 1.09 ± 0.032 | 1.06 ± 0.023 | 1.077 ± 0.0068 | 1.055 ± 0.0095 | 1.06 ± 0.016 | 0.975 ± 0.087 | 0.932 ± 0.16 | 0.929 ± 0.16 | 0.928 ± 0.15 | 0.923 ± 0.24 | 0.882 ± 0.28 | 0.926 ± 0.17 | 0.77 ± 0.29
SYO1 SYNOVIAL | 0.9541 ± 0.0069 | 0.979 ± 0.064 | 0.97 ± 0.062 | 0.974 ± 0.036 | 0.936 ± 0.036 | 0.976 ± 0.056 | 0.805 ± 0.062 | 0.743 ± 0.032 | 0.942 ± 0.068 | 0.895 ± 0.083 | 0.945 ± 0.055 | 0.836 ± 0.025 | 1.03 ± 0.088 | 1.057 ± 0.0096 | 0.563 ± 0.022 | 0.222 ± 0.012
T47D BREAST | 1.02 ± 0.041 | 1.065 ± 0.0097 | 1.07 ± 0.025 | 1.04 ± 0.045 | 1.07 ± 0.051 | 1.06 ± 0.026 | 1.05 ± 0.041 | 1.08 ± 0.038 | 0.967 ± 0.026 | 1.01 ± 0.02 | 1.02 ± 0.042 | 1.013 ± 0.006 | 1.08 ± 0.057 | 1.05 ± 0.043 | 0.785 ± 0.02 | 0.449 ± 0.028
